# According to patent publication US20230218631A1 (priority 2020, published 2023):
# Key:
# Format in all cases: in vivo
# C57BL/6J mice [1] = experiment: Two-bottle choice ethanol drinking (non-stressed) under systemic UNC0642
# Protocol: Animal Care. Adult male C57BL/6J mice (Jackson Laboratory, Bar Harbor, Me.) were singly housed in a climate-controlled environment (21° C.) on a 12h light-dark cycle. Animals were habituated to the housing environment for at least 7 days prior to use in experiments, and had food and water ad libitum. All drinking and behavioral experiments were performed during the dark cycle as described below, and were approved by the MUSC Institutional Animal Care and Use Committee (IACUC) in facilities accredited by the American Association for the Accreditation of Laboratory Animal Care (AAALAC). All procedures were conducted in accordance with the guidelines established by the National Institutes of Health and the National Research Council.
# (§1) Systemic G9A inhibitor administration and stress-potentiated drinking. […] Mice were then divided into 2 even groups and given chronic injections of either vehicle or 4 mg/kg UNC0642 for 2 weeks similar to a previous in vivo study in mice (Wang et al., 2018). Next, following 3 days of withdrawal, control mice were injected with 5 mg/kg U50,488 only and chronic treated mice were given both U50,488 and UNC0642 in the same injection 30 minutes before the session. This test was repeated again the following day and then only vehicle injections were given to all mice for the next 3 days before two-bottle choice testing. Finally, after another 3 day withdrawal, an acute injection of UNC0642+U50,488 was given to the naïve control group while U50,488 alone was administered to the chronic UNC0642 group 30 minutes before drinking.
# Systemic EHMT2/G9A Inhibition Suppresses Stress-induced Ethanol Drinking Since reducing EHMT2/G9A levels in the NAc blocked stress-regulated ethanol drinking in mice, we tested whether systemic delivery of a specific EHMT2/G9A methyltransferase inhibitor, UNC0642 (Liu et al, 2013), could block stress-potentiated ethanol drinking. Wild-type mice were allowed to drink ethanol for 2 weeks prior to repeated, daily injections of UNC0642 (4 mg/kg; i.p.) given 30 minutes prior to the 2-bottle choice sessions (FIG. 5A). […]
# C57BL/6J mice [2] = experiment: U50,488 (kappa agonist) stress-potentiated two-bottle choice ethanol drinking under systemic UNC0642
# Protocol: as §1
# Systemic EHMT2/G9A Inhibition Suppresses Stress-induced Ethanol Drinking Since reducing EHMT2/G9A levels in the NAc blocked stress-regulated ethanol drinking in mice, we tested whether systemic delivery of a specific EHMT2/G9A methyltransferase inhibitor, UNC0642 (Liu et al, 2013), could block stress-potentiated ethanol drinking. Wild-type mice were allowed to drink ethanol for 2 weeks prior to repeated, daily injections of UNC0642 (4 mg/kg; i.p.) given 30 minutes prior to the 2-bottle choice sessions (FIG. 5A). […] Mice were then allowed to continue ethanol drinking for one additional week before the UNC0642-naïve mice (former vehicle control group) were injected with either vehicle or UNC0642 (4 mg/kg; i.p.) and tested for U50,488-potentiated ethanol drinking.
# Since UNC0642 (4 mg/kg, i.p.) blocked stress-regulated ethanol drinking in mice as shown above, it was next tested whether this effect was dose-dependent and if it worked similarly in both sexes. There are reported sex/gender differences in the risk of developing several neuropsychiatric conditions, including AUD, SUD, and mood disorders, and while there was no a priori expectation of a sex-difference in UNC0642 efficacy in reducing stress-potentiated alcohol drinking, we wished to confirm that the treatment would be effective in both males and females. Similar to the studies described hereinabove (FIG. 5A), wild-type mice (both male and female) were allowed to drink ethanol for 2 weeks prior to repeated, daily injections of UNC0642 (4 mg/kg; 2 mg/kg, 1 mg/kg, or 0 mg/kg (vehicle), i.p.) given 30 minutes prior to the 2-bottle choice sessions. […]
# [3] = test system: wild-type mice (both male and female); experiment: Elevated plus maze (anxiety-like behavior)
# Protocol: These same mice were tested on a 5-minute elevated plus maze protocol at 1-3 days after their final drinking session. 30-60 minutes following an i.p. injection of either 0, 1, 2, or 4 mg/kg UNC0642, mice were allowed to freely explore the open and closed arms of the elevated plus maze. Less anxious mice typically explore the open arms more quickly and spend more time exploring the open arms. […] No statistically significant effects were observed on the time spent in the open arms, as UNC0642 had no effect on open arms time in the elevated plus maze (see FIG. 7D; One-Way ANOVA, F3,42=0.7372, p=0.5359, 1 outlier removed from the 1 mg/kg group with a Grubbs test) or on the number of entries into the open arms, meaning that UNC0642 had no effect on the number of open arm entries in the elevated plus maze (FIG. 7E; One-Way ANOVA, F3,42=1.396, p=0.2573, 1 outlier removed from the 0 mg/kg group with a Grubbs test). […] Thus, in some embodiments, it can be particularly useful for treating individuals with co-morbid psychiatric diseases and/or disorders and AUD/SUD.
# wild-type mice = experiment: Dependence (CIE)-induced and forced swim stress+dependence escalated ethanol drinking under systemic UNC0642; conditions: chronic 4 mg/kg UNC0642 for 15 days
# Protocol: Systemic G9A inhibitor administration and dependence-potentiated and stress+dependence-potentiated drinking. […] Mice were then divided into 4 even groups. Mice were exposed to Air/No stress, Air/FSS, CIE/No Stress, or CIE/stress in a 2×2 design to assess the effects of UNC0642 on dependence drinking alone and dependence+stress. Chronic injections of either vehicle or 4 mg/kg UNC0642 were started during the “test 4” phase in FIG. 6A and continued for 15 days. Ethanol consumed was recorded daily.
# Since systemic delivery of UNC0642 blocked stress-regulated ethanol drinking in mice, we tested whether systemic delivery of UNC0642 could block dependence-induced escalation of ethanol drinking also. […] Mice were then divided into 4 evenly matched groups. Mice were exposed to Air/No stress, Air/FSS, CIE/No Stress, or CIE/stress to assess the effects of UNC0642 on ethanol drinking influenced by alcohol dependence alone or stress+dependence. Chronic injections of either vehicle or 4 mg/kg UNC0642 were started during the “test 4” phase illustrated in FIG. 6A and continued for 15 days.
compound,measurement,setting,value
"COc1cc2c(NC3CCN(C(C)C)CC3)nc(N3CCC(F)(F)CC3)nc2cc1OCCCN1CCCC1 [UNC0642, 2-(4,4-Difluoropiperidin-1-yl)-6-methoxy-N-[1-(propan-2-yl)piperidin-4-yl]-7-[3-(pyrrolidin-1-yl)propoxy]quinazolin-4-amine]",ethanol drinking during the first week of daily UNC0642 injections (week 3),"C57BL/6J mice [1]; 4 mg/kg i.p. daily, 30 min before 2-bottle choice session, vs vehicle, FIG. 5B",significant reduction
same,ethanol intake in the second week of daily drug treatments (week 4),"C57BL/6J mice [1]; 4 mg/kg i.p. daily, vs vehicle control, FIG. 5B",no difference
same,baseline two-bottle choice alcohol drinking during daily UNC0642 injections,"C57BL/6J mice [1]; 1, 2 or 4 mg/kg i.p. daily, male and female mice, weeks 3-5, FIG. 7A",no effect
same,"U50,488-potentiated ethanol drinking, chronic UNC0642 2 mg/kg","C57BL/6J mice [2]; 2 mg/kg i.p. daily, male and female mice, both sexes similarly, FIG. 7B",suppressed
same,"U50,488-potentiated ethanol drinking, chronic UNC0642 4 mg/kg","C57BL/6J mice [2]; 4 mg/kg i.p. daily, male and female mice, both sexes similarly, FIG. 7B",suppressed
same,"U50,488-potentiated ethanol drinking, chronic UNC0642 treatment","C57BL/6J mice [2]; chronic 4 mg/kg i.p. for 2 weeks, U50,488 5 mg/kg i.p. 30 min before session, FIG. 5C",suppressed
same,"U50,488-potentiated ethanol drinking, single (acute) injection of UNC0642","C57BL/6J mice [2]; single 4 mg/kg i.p. with U50,488 5 mg/kg in UNC0642-naive mice, FIG. 5D",failed to influence stress-potentiated drinking
same,time spent in the open arms of the elevated plus maze,"[3]; 1, 2, 4 mg/kg i.p., FIG. 7D",no effect
same,number of open arm entries in the elevated plus maze,"[3]; 1, 2, 4 mg/kg i.p., FIG. 7E",no effect
same,latency to explore the open arms of the elevated plus maze,"[3]; all 3 doses (1, 2, 4 mg/kg i.p.), 30-60 min after injection, 5-minute test, both sexes, FIG. 7C",reduced the latency
same,dependence-induced ethanol drinking during test 5 week,"wild-type mice; CIE vs Air, no stress, FIG. 6B left panel",significant reduction
same,"stress+dependence ethanol drinking, test 5","wild-type mice; forced swim stress plus CIE, FIG. 6B right panel",also suppressed
